{
  "source": "patent US7521479B2",
  "about": "(priority 2001, dated 2009)",
  "key": {"Aβ1-40": {"target": "Aβ1-40 (Homo sapiens, UniProt P05067)", "sequence (P05067 672-711 limits assumed)": "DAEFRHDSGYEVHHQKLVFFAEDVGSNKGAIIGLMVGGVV", "settings": "cited from earlier work"}, "PrP^Sc": {"target": "PrP^Sc (Mus musculus, UniProt P04925)", "sequence (P04925 23-230 limits assumed)": "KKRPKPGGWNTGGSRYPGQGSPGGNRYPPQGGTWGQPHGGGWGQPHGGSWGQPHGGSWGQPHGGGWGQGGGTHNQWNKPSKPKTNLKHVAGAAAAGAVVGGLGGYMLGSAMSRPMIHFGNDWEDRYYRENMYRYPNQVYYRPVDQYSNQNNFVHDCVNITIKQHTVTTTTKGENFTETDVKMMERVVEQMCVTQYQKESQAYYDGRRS", "settings": "neuroblastoma cell line permanently infected with prions; cited from earlier work"}, "prions": {"system": "prions", "settings": "rodents, administered prophylactically; cited from earlier work"}, "scrapie strain ME7": {"system": "scrapie strain ME7", "type": "in vivo, C57BL mice"}, "[1]": {"settings": "in vivo; cited from earlier work"}, "[2]": {"settings": "group d, spleens, at time of death"}},
  "note": "Counter-ions that a name gives are not always drawn.",
  "data": [
    {"smiles": "Oc1ccc(O)c2ccccc12", "note": "[1,4-dihydroxynaphthalene]", "values": [
      {"measurement": "inhibition of Aβ1-40 aggregation and neurotoxicity", "setting": "Aβ1-40", "value": "inhibit Aβ1-40 aggregation and neurotoxicity at comparable molar concentrations to rifampicin"}
    ]},
    {"smiles": "Nc1c(/N=N/c2ccc(-c3ccc(/N=N/c4cc(S(=O)(=O)O)c5ccccc5c4N)cc3)cc2)cc(S(=O)(=O)O)c2ccccc12", "note": "[Congo red]", "values": [
      {"measurement": "accumulation of PrP^Sc", "setting": "PrP^Sc", "value": "reduce the accumulation of PrP^Sc"},
      {"measurement": "disease onset", "setting": "prions", "value": "delay disease onset"}
    ]},
    {"smiles": "Oc1ccc(O)cc1", "note": "[Hydroquinone]", "values": [
      {"measurement": "inhibition of Aβ1-40 aggregation and neurotoxicity", "setting": "Aβ1-40", "value": "inhibit Aβ1-40 aggregation and neurotoxicity at comparable molar concentrations to rifampicin"}
    ]},
    {"smiles": "N=C(N)N", "note": "[guanidine hydrochloride]", "values": [
      {"measurement": "PrP^Sc titers at the final endpoint versus group b", "setting": "scrapie strain ME7; [2]", "value": "lower PrP^Sc titers"},
      {"measurement": "infectivity at the final endpoint versus group b", "setting": "scrapie strain ME7; [2]", "value": "lower infectivity"},
      {"measurement": "survival (time of death) of treated infected mice", "setting": "scrapie strain ME7; group d: ME7 i.p., oral treatment from 70 days post-infection, 15 then 40 mg/kg/day", "value": "live as long as the mice in group a"},
      {"measurement": "PrP^Sc level with treatment from one day post inoculation", "setting": "scrapie strain ME7; group f, prophylactic-like treatment", "value": "negligible or not much higher than that provided in the initial inoculum"},
      {"measurement": "overall efficacy in scrapie", "setting": "scrapie strain ME7; overall results", "value": "effective in the treatment of scrapie"},
      {"measurement": "side effects", "setting": "[1]", "value": "bone marrow depression to renal problems to cardiac arrhythmia"}
    ]}
  ]
}
